Some results are limits rather than exact numbers.

The test deals with T1, BTK (Homo sapiens, UniProt Q06187).
T1 construct: endogenous in cells; host or cells: Ramos (ATCC CRL-1596)
Put plainly: Cellular BTK HTRF Assay (BTK degradation in Ramos cells). Type of test: cell-based. As to conditions: four hours incubation, 37° C., BTK levels relative to DMSO-treated cells. The method, then:
Ramos (CRL-1596) cells were obtained from American Type Culture Collection and were grown in RPMI-1640 media (ATCC, 30-2001) supplemented with 10% heat-inactivated FBS (Corning Premium Fetal Bovine Serum from Fisher, MT35015CV).
Compounds of the present invention were added to 50,000 Ramos cells in round-bottom 96 well plates with a final DMSO concentration of […] and were incubated at 37° C., 5% CO2 for four hours. BTK levels were determined using Cisbio Total-BTK HTRF ([…] Time-Resolved Fluorescence) kit (63ADK064PEG) according to manufacturer's protocol. Briefly, cells were incubated in 1× supplied lysis buffer for 30 minutes. In an opaque white low volume 96 well plate (Cisbio, 66PL96005), cell lysate was combined with two different specific BTK antibodies, one conjugated with Eu^3+-Cryptate FRET donor and one conjugated with d2 FRET acceptor. Assay controls include wells containing cell lysate with only the Eu^3+-Cryptate FRET donor antibody and wells containing both HTRF antibodies and lysis buffer without cells or control lysate provided by Cisbio. HTRF ratio was calculated as (acceptor signal at 665 nm/donor signal at 620 nm)×10^4. Background HTRF levels were determined from the control well containing the donor, but no acceptor, antibody. Background HTRF levels were subtracted from all samples. Readouts were reported as HTRF levels relative to HTRF levels of DMSO-treated cells. Four-parameter non-linear regressions were performed in GraphPad Prism 7.02 to obtain DC50 values. DC50 values are provided in Table 3, wherein A<7.5 nM, 7.5 nM≤B≤50 nM, and 50 nM<C<500 nM.
In general terms: TR-FRET usually uses a lanthanide donor and a delayed reading to cut background.

T1 sequence (Q06187 whole entry): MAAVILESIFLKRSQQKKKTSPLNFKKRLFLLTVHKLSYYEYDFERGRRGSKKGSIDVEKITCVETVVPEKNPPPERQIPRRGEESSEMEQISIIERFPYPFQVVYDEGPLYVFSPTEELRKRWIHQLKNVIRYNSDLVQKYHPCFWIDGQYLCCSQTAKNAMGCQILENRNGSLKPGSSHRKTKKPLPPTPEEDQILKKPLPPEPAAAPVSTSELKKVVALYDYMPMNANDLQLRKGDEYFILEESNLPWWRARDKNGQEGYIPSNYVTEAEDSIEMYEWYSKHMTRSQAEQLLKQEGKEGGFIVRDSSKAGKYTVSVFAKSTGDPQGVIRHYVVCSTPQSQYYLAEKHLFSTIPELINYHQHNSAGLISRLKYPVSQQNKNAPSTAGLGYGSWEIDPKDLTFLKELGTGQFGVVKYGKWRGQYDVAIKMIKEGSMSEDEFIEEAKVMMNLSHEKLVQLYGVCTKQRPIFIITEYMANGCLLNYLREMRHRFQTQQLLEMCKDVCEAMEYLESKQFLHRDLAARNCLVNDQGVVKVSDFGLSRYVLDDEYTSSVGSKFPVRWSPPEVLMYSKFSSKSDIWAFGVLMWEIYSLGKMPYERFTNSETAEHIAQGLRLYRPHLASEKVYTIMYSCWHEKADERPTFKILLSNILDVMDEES

For orientation: DC50 means the concentration at which degradation of the target reaches its halfway point. `CS(=O)(=O)c1ccc(Nc2nc(N3CCC[C@@H](NC(=O)[C@H]4[C@@H]5CN(C6CCN(c7ccc8c(c7)C(=O)N(C7CCC(=O)NC7=O)C8=O)CC6)C[C@@H]54)C3)cnc2C(N)=O)cc1` (stereo partly drawn) [Compound 35, (1R,5S,6r)-N—((R)-1-(5-carbamoyl-6-((4-(methylsulfonyl)phenyl)amino)pyrazin-2-yl)piperidin-3-yl)-3-(1-(2-(2,6-dioxopiperidin-3-yl)-1,3-dioxoisoindolin-5-yl)piperidin-4-yl)-3-azabicyclo[3.1.0]hexane-6-carboxamide] displayed a DC50 of 7.5 to 50 nM.

With `CS(=O)(=O)c1ccc(Nc2nc(N3CCC[C@@H](NC(=O)C4CCC5(CC4)CCN(c4ccc6c(c4)C(=O)N(C4CCC(=O)NC4=O)C6=O)CC5)C3)cnc2C(N)=O)cc1` (stereo partly drawn) [Compound 36, N-[(3R)-1-{5-carbamoyl-6-[(4-methanesulfonylphenyl)amino]pyrazin-2-yl}piperidin-3-yl]-3-[2-(2,6-dioxopiperidin-3-yl)-1,3-dioxoisoindol-5-yl]-3-azaspiro[5.5]undecane-9-carboxamide], the 50% degradation concentration (DC50) is less than 7.5 nM.

Compound `CS(=O)(=O)c1ccc(Nc2nc(N3CCC[C@@H](NC(=O)N4CCC5(CC4)CCN(c4ccc6c(c4)C(=O)N(C4CCC(=O)NC4=O)C6=O)CC5)C3)cnc2C(N)=O)cc1` (stereo partly drawn) [Compound 11, N-[(3R)-1-{5-carbamoyl-6-[(4-methanesulfonylphenyl)amino]pyrazin-2-yl}piperidin-3-yl]-9-[2-(2,6-dioxopiperidin-3-yl)-1,3-dioxoisoindol-5-yl]-3,9-diazaspiro[5.5]undecane-3-carboxamide] yielded a DC50 of less than 7.5 nM.

Take `CS(=O)(=O)c1ccc(Nc2nc(N3CCC[C@@H](NC(=O)C4CCN(C5CCN(c6ccc7c(c6)C(=O)N(C6CCC(=O)NC6=O)C7=O)CC5)CC4)C3)cnc2C(N)=O)cc1` (stereo partly drawn) [Compound 40, N—((R)-1-(5-carbamoyl-6-((4-(methylsulfonyl)phenyl)amino)pyrazin-2-yl)piperidin-3-yl)-1′-(2-(2,6-dioxopiperidin-3-yl)-1,3-dioxoisoindolin-5-yl)-[1,4′-bipiperidine]-4-carboxamide]: the 50% degradation concentration (DC50) lay within 50 to 500 nM.

Regarding `CS(=O)(=O)c1ccc(Nc2nc(N3CCC[C@@H](NC(=O)C4CCN(CC5CCN(c6ccc7c(c6)C(=O)N(C6CCC(=O)NC6=O)C7=O)CC5)CC4)C3)cnc2C(N)=O)cc1` (stereo partly drawn) [Compound 20, 5-[(3R)-3-[1-({1-[2-(2,6-dioxopiperidin-3-yl)-1,3-dioxoisoindol-5-yl]piperidin-4-yl}methyl)piperidine-4-amido]piperidin-1-yl]-3-[(4-methanesulfonylphenyl)amino]pyrazine-2-carboxamide], the DC50 is less than 7.5 nM.

On to `CS(=O)(=O)c1ccc(Nc2nc(N3CCC[C@@H](NC(=O)[C@H]4[C@@H]5CN(CC6CCN(c7ccc8c(c7)C(=O)N(C7CCC(=O)NC7=O)C8=O)CC6)C[C@@H]54)C3)cnc2C(N)=O)cc1` (stereo partly drawn) [Compound 33, (1R,5S,6r)-N—((R)-1-(5-carbamoyl-6-((4-(methylsulfonyl)phenyl)amino)pyrazin-2-yl)piperidin-3-yl)-3-((1-(2-(2,6-dioxopiperidin-3-yl)-1,3-dioxoisoindolin-5-yl)piperidin-4-yl)methyl)-3-azabicyclo[3.1.0]hexane-6-carboxamide], for which the DC50 was less than 7.5 nM.

For the compound `CS(=O)(=O)c1ccc(Nc2nc(N3CCC[C@@H](NC(=O)C4CCN(CC5CCN(c6ccc7c(c6)C(=O)N(C6CCC(=O)NC6=O)C7=O)CC5)C4)C3)cnc2C(N)=O)cc1` (stereo partly drawn) [Compound 14, 5-[(3R)-3-[1-({1-[2-(2,6-dioxopiperidin-3-yl)-1,3-dioxoisoindol-5-yl]piperidin-4-yl}methyl)pyrrolidine-3-amido]piperidin-1-yl]-3-[(4-methanesulfonylphenyl)amino]pyrazine-2-carboxamide], the DC50 was less than 7.5 nM.

Turning to `Cn1cc(Nc2nc(N3CCC[C@@H](N4CCC5(CCN(CC6CCN(c7ccc8c(c7)C(=O)N(C7CCC(=O)NC7=O)C8=O)CC6)CC5)C4=O)C3)cnc2C(N)=O)cn1` (stereo partly drawn) [Compound 48, 5-[(3R)-3-[8-({1-[2-(2,6-dioxopiperidin-3-yl)-1,3-dioxoisoindol-5-yl]piperidin-4-yl}methyl)-1-oxo-2,8-diazaspiro[4.5]decan-2-yl]piperidin-1-yl]-3-[(1-methylpyrazol-4-yl)amino]pyrazine-2-carboxamide], the 50% degradation concentration (DC50) is less than 7.5 nM.

`CS(=O)(=O)c1ccc(Nc2nc(N3CCC[C@@H](NC(=O)C4CCC5(CC4)CCN(Cc4ccc6c(c4)C(=O)N(C4CCC(=O)NC4=O)C6=O)CC5)C3)cnc2C(N)=O)cc1` (stereo partly drawn) [Compound 31, N—((R)-1-(5-carbamoyl-6-((4-(methylsulfonyl)phenyl)amino)pyrazin-2-yl)piperidin-3-yl)-3-((2-(2,6-dioxopiperidin-3-yl)-1,3-dioxoisoindolin-5-yl)methyl)-3-azaspiro[5.5]undecane-9-carboxamide] had a half-maximal degradation concentration (DC50) of less than 7.5 nM.

On to `CS(=O)(=O)c1ccc(Nc2nc(N3CCC[C@@H](NC(=O)N4CCC5(CC4)CN(c4ccc6c(c4)C(=O)N(C4CCC(=O)NC4=O)C6=O)C5)C3)cnc2C(N)=O)cc1` (stereo partly drawn) [Compound 28, N—((R)-1-(5-carbamoyl-6-((4-(methylsulfonyl)phenyl)amino)pyrazine-2-yl)piperidin-3-yl)-2-(2-(2,6-dioxopiperidin-3-yl)-1,3-dioxoisoindolin-5-yl)-2,7-diazaspiro[3.5]nonane-7-carboxamide], for which the DC50 lay within 7.5 to 50 nM.

As to `Cc1cc(Nc2nc(N3CCC[C@@H](NC(=O)N4CCN(CC5CCN(c6ccc7c(c6)C(=O)N(C6CCC(=O)NC6=O)C7=O)CC5)CC4)C3)cnc2C(N)=O)sn1` (stereo partly drawn) [Compound 23, 5-[(3R)-3-[4-({1-[2-(2,6-dioxopiperidin-3-yl)-1,3-dioxoisoindol-5-yl]piperidin-4-yl}methyl)piperazine-1-carbonylamino]piperidin-1-yl]-3-[(3-methyl-1,2-thiazol-5-yl)amino]pyrazine-2-carboxamide], the DC50 is less than 7.5 nM.

Consider `CS(=O)(=O)c1ccc(Nc2nc(N3CCC[C@@H](NC(=O)CCCCc4ccc5c(c4)C(=O)N(C4CCC(=O)NC4=O)C5)C3)cnc2C(N)=O)cc1` (stereo partly drawn) [Compound 4, 5-[(3R)-3-{5-[2-(2,6-dioxopiperidin-3-yl)-3-oxo-1H-isoindol-5-yl]pentanamido}piperidin-1-yl]-3-[(4-methanesulfonylphenyl)amino]pyrazine-2-carboxamide], for which the DC50 is 50 to 500 nM.

`Cc1cc(Nc2nc(N3CCC[C@@H](NC(=O)C4CCN(CC5CN(c6ccc7c(c6)C(=O)N(C6CCC(=O)NC6=O)C7=O)C5)C4)C3)cnc2C(N)=O)sn1` (stereo partly drawn) [Compound 16, 5-[(3R)-3-[1-({1-[2-(2,6-dioxopiperidin-3-yl)-1,3-dioxoisoindol-5-yl]azetidin-3-yl}methyl)pyrrolidine-3-amido]piperidin-1-yl]-3-[(3-methyl-1,2-thiazol-5-yl)amino]pyrazine-2-carboxamide]: the DC50 is less than 7.5 nM.

For `CS(=O)(=O)c1ccc(Nc2nc(N3CCC[C@@H](NC(=O)C4CC5(C4)CN(Cc4ccc6c(c4)C(=O)N(C4CCC(=O)NC4=O)C6=O)C5)C3)cnc2C(N)=O)cc1` (stereo partly drawn) [Compound 32, N—((R)-1-(5-carbamoyl-6-((4-(methylsulfonyl)phenyl)amino)pyrazin-2-yl)piperidin-3-yl)-2-((2-(2,6-dioxopiperidin-3-yl)-1,3-dioxoisoindolin-5-yl)methyl)-2-azaspiro[3.3]heptane-6-carboxamide], the half-maximal degradation concentration (DC50) lay in the range of 7.5 to 50 nM.

Consider `Cc1cc(Nc2nc(N3CCC[C@@H](NC(=O)N4CCN(CC5CN(c6ccc7c(c6)C(=O)N(C6CCC(=O)NC6=O)C7=O)C5)CC4)C3)cnc2C(N)=O)sn1` (stereo partly drawn) [Compound 18, 5-[(3R)-3-[4-({1-[2-(2,6-dioxopiperidin-3-yl)-1,3-dioxoisoindol-5-yl]azetidin-3-yl}methyl)piperazine-1-carbonylamino]piperidin-1-yl]-3-[(3-methyl-1,2-thiazol-5-yl)amino]pyrazine-2-carboxamide], for which the DC50 was less than 7.5 nM.

With `Cc1cc(Nc2nc(N3CCC[C@@H](NC(=O)N4CCN(c5ccc6c(c5)C(=O)N(C5CCC(=O)NC5=O)C6=O)CC4)C3)cnc2C(N)=O)sn1` (stereo partly drawn) [Compound 27, 5-[(3R)-3-{4-[2-(2,6-dioxopiperidin-3-yl)-1,3-dioxoisoindol-5-yl]piperazine-1-carbonylamino}piperidin-1-yl]-3-[(3-methyl-1,2-thiazol-5-yl)amino]pyrazine-2-carboxamide], the 50% degradation concentration (DC50) is 50 to 500 nM.

In turn, `Cn1cc(Nc2nc(N3CCC[C@@H](NC(=O)C4CCN(CC5CN(c6ccc7c(c6)C(=O)N(C6CCC(=O)NC6=O)C7=O)C5)CC4)C3)cnc2C(N)=O)cn1` (stereo partly drawn) [Compound 19, 5-[(3R)-3-[1-({1-[2-(2,6-dioxopiperidin-3-yl)-1,3-dioxoisoindol-5-yl]azetidin-3-yl}methyl)piperidine-4-amido]piperidin-1-yl]-3-[(1-methylpyrazol-4-yl)amino]pyrazine-2-carboxamide] returned a DC50 of less than 7.5 nM.

(Values after US12582722B2, “Bifunctional compounds for degrading BTK via ubiquitin proteosome pathway” (NURIX THERAPEUTICS, INC., priority 2019, dated 2026).)
